# Test results as given in DBAASP.
# Experiments:
# Test in all cases: ≥ marks a high value that may be exact or a test limit, other limits are often not marked, values filed in µg/mL are converted to µM
# [1] = tested on: Bacillus subtilis ATCC 6633
# [2] = tested on: Escherichia coli ATCC 25922
# [3] = tested on: Klebsiella pneumoniae ATCC 10031
# [4] = tested on: Micrococcus luteus ATCC 10240
# [5] = tested on: Pseudomonas aeruginosa ATCC 27853
# [6] = tested on: Salmonella enterica subsp. enterica serovar Typhimurium ATCC 14028
# [7] = tested on: Shigella dysenteriae ATCC 9752
# [8] = tested on: Staphylococcus aureus ATCC 6538P
# [9] = tested on: Staphylococcus aureus TK784
# [10] = tested on: Staphylococcus epidermidis ATCC 12228
# [11] = tested on: Acinetobacter baumannii ATCC 19606
# [12] = tested on: Bordetella bronchiseptica CUN 11844-99
# [13] = tested on: Pseudomonas aeruginosa CUN 4158-02
# [14] = tested on: Staphylococcus aureus ATCC 25923
# [15] = tested on: Staphylococcus aureus ATCC 43300
# [16] = tested on: Staphylococcus aureus CUN 3792-99
# [17] = tested on: Stenotrophomonas maltophilia CUN 3998-00
# Bacillus subtilis 168 = tested on: Bacillus subtilis 168
# [18] = tested on: Candida albicans F7-39/IDE99
# Escherichia coli B = tested on: Escherichia coli B
# [19] = tested on: Micrococcus luteus CCM 144
# Pseudomonas aeruginosa = tested on: Pseudomonas aeruginosa
# Staphylococcus aureus = tested on: Staphylococcus aureus
# [20] = tested on: Candida albicans ATCC 90028
# [21] = tested on: Enterobacter cloacae NHTCC 53001
# [22] = tested on: Klebsiella pneumoniae KK3 9904
# [23] = tested on: Pseudomonas aeruginosa 77319
# [24] = tested on: Pseudomonas aeruginosa 77733
# [25] = tested on: Pseudomonas aeruginosa 77905
# [26] = tested on: Pseudomonas aeruginosa 78073
# [27] = tested on: Pseudomonas aeruginosa 78078
# [28] = tested on: Pseudomonas aeruginosa 78327
# [29] = tested on: Pseudomonas aeruginosa 78887
# [30] = tested on: Pseudomonas aeruginosa 78888
# [31] = tested on: Pseudomonas aeruginosa 78905
# [32] = tested on: Pseudomonas aeruginosa 87104
# [33] = tested on: Staphylococcus aureus NCTC 8325
# [34] = tested on: Bacillus licheniformis X39
# [35] = tested on: Candida albicans ATCC 2002
# [36] = tested on: Psychrobacter faecalis X29
# [37] = tested on: Rhodococcus rhodochrous X15
# [38] = tested on: Staphylococcus carnosus KHS
# [39] = tested on: Aeromonas salmonicida NCIMB 1102
# [40] = tested on: Bacillus subtilis IAM 1026
# [41] = tested on: Escherichia coli JCM 1649
# [42] = tested on: Photobacterium damselae subsp. piscicida Sp 9587
# Salmonella typhimurium = tested on: Salmonella typhimurium
# [43] = tested on: Shewanella putrefaciens IAM 1509
# [44] = tested on: Staphylococcus aureus IAM 1011
# [45] = tested on: Vibrio anguillarum NCIMB 829
# [46] = tested on: Vibrio parahaemolyticus Vp+1
smiles,measurement,setting,value
CC(C)C[C@H](NC(=O)[C@H](CCCCN)NC(=O)[C@H](CCCCN)NC(=O)[C@H](CC(C)C)NC(=O)[C@H](CC(C)C)NC(=O)[C@H](CCCCN)NC(=O)[C@H](CCCCN)NC(=O)[C@H](CC(C)C)NC(=O)[C@H](Cc1c[nH]c2ccccc12)NC(=O)[C@H](CCCCN)NC(=O)[C@@H](N)CC(C)C)C(N)=O [LKWLKKLLKKL],MIC,[1],1.42 µM
same,MIC,[2],2.84 µM
same,MIC,[3],1.42 µM
same,MIC,[4],2.84 µM
same,MIC,[5],5.67 µM
same,MIC,[6],2.84 µM
same,MIC,[7],1.42 µM
same,MIC,[8],1.42 µM
same,MIC,[9],5.67 µM
same,MIC,[10],2.84 µM
CC(C)C[C@H](NC(=O)[C@H](CCCN=C(N)N)NC(=O)[C@H](CCCN=C(N)N)NC(=O)[C@H](Cc1ccccc1)NC(=O)[C@H](CCCCN)NC(=O)[C@H](CCCCN)NC(=O)[C@H](CS)NC(=O)CN)C(=O)N[C@@H](CCCCN)C(=O)N[C@@H](Cc1c[nH]c2ccccc12)C(=O)N[C@@H](CCCCN)C(=O)N[C@@H](Cc1ccc(O)cc1)C(=O)N[C@@H](CCCCN)C(=O)NCC(=O)N[C@@H](CCCCN)C(=O)N[C@@H](Cc1ccccc1)C(=O)N[C@@H](Cc1c[nH]c2ccccc12)C(=O)N[C@@H](Cc1ccccc1)C(=O)N[C@@H](Cc1c[nH]c2ccccc12)C(=O)N[C@@H](CS)C(=O)NCC(N)=O [GCKKFRRLKWKYKGKFWFWCG],MIC,[11],23.2 µM
same,MIC,[12],1.45 µM
same,MIC,[2],23.2 µM
same,MIC,[5],93 µM
same,MIC,[13],≥ 93 µM
same,MIC,[14],11.6 µM
same,MIC,[15],23.2 µM
same,MIC,[16],≥ 372 µM
same,MIC,[17],≥ 186 µM
CC[C@H](C)[C@H](NC(=O)[C@H](C)NC(=O)CNC(=O)[C@H](Cc1c[nH]c2ccccc12)NC(=O)[C@H](CC(N)=O)NC(=O)[C@@H](N)CCCCN)C(=O)N[C@@H](CC(C)C)C(=O)N[C@@H](CCCCN)C(=O)N[C@@H](Cc1cnc[nH]1)C(=O)N[C@H](C(=O)N[C@H](C(=O)N[C@@H](CCCCN)C(N)=O)[C@@H](C)CC)[C@@H](C)CC [KNWGAILKHIIK],MIC,Bacillus subtilis 168,5.8 µM
same,MIC,[18],9.8 µM
same,MIC,Escherichia coli B,17.1 µM
same,MIC,[19],9 µM
same,MIC,Pseudomonas aeruginosa,83.3 µM
same,MIC,Staphylococcus aureus,100 µM
CC[C@H](C)[C@H](NC(=O)[C@H](Cc1cnc[nH]1)NC(=O)[C@H](CCCCN)NC(=O)CNC(=O)[C@H](C)NC(=O)[C@@H](NC(=O)[C@H](CCCCN)NC(=O)[C@H](CC(C)C)NC(=O)[C@@H](NC(=O)CNC(=O)[C@H](CCCCN)NC(=O)[C@H](Cc1ccccc1)NC(=O)[C@H](CC(C)C)NC(=O)[C@H](CO)NC(=O)[C@H](CCSC)NC(=O)[C@H](CC(C)C)NC(=O)CN)C(C)C)[C@@H](C)O)C(=O)N[C@@H](Cc1ccccc1)C(=O)N[C@@H](CCCCN)C(=O)N[C@@H](CC(N)=O)C(=O)N[C@H](C(=O)NCC(=O)NCC(=O)N[C@@H](CO)C(=O)N[C@@H](CC(C)C)C(=O)N[C@@H](CC(C)C)C(=O)N[C@@H](CC(=O)O)C(=O)N[C@@H](CCC(N)=O)C(=O)N[C@@H](C)C(=O)N[C@@H](CCCCN)C(=O)N[C@H]1CSSC[C@@H](C(=O)O)NC(=O)[C@H](CCC(=O)O)NC(=O)CNC(=O)[C@H]([C@@H](C)O)NC(=O)[C@H]([C@@H](C)CC)NC(=O)[C@H](CCCCN)NC1=O)C(C)C [GLMSLFKGVLKTAGKHIFKNVGGSLLDQAKCKITGEC],MIC,[20],≥ 100 µM
same,MIC,[21],6 µM
same,MIC,[2],6 µM
same,MIC,[22],6 µM
same,MIC,[23],12 µM
same,MIC,[24],12 µM
same,MIC,[25],6 µM
same,MIC,[26],6 µM
same,MIC,[27],12 µM
same,MIC,[28],6 µM
same,MIC,[29],6 µM
same,MIC,[30],12 µM
same,MIC,[31],12 µM
same,MIC,[32],6 µM
same,MIC,[5],3 µM
same,MIC,[33],25 µM
CC[C@H](C)[C@H](NC(=O)[C@H](CCCCN)NC(=O)[C@H](CCCCN)NC(=O)[C@H](C)NC(=O)[C@H](CC(C)C)NC(=O)[C@H](CC(N)=O)NC(=O)[C@@H](NC(=O)[C@@H](NC(=O)[C@@H](NC(=O)[C@H](CC(N)=O)NC(=O)[C@H](CC(C)C)NC(=O)[C@@H](NC(=O)[C@@H](N)CC(N)=O)[C@@H](C)CC)[C@@H](C)O)[C@@H](C)CC)[C@@H](C)CC)C(=O)N[C@@H](CC(C)C)C(N)=O [NILNTIINLAKKIL],MIC,[34],19 µM
same,MIC,[35],9.5 µM
same,MIC,[36],≥ 37.5 µM
same,MIC,[37],2.4 µM
same,MIC,[14],4.8 µM
same,MIC,[38],19 µM
CC[C@H](C)[C@H](N)C(=O)NCC(=O)NCC(=O)N[C@H](C(=O)N[C@H](C(=O)N[C@@H](CO)C(=O)N[C@@H](Cc1ccccc1)C(=O)N[C@@H](Cc1ccccc1)C(=O)N[C@@H](CCCCN)C(=O)N[C@@H](CCCN=C(N)N)C(=O)N[C@@H](CC(C)C)C(=O)N[C@@H](Cc1ccccc1)C(=O)O)[C@@H](C)CC)[C@@H](C)CC [IGGIISFFKRLF],MIC,[39],17.9 µM
same,MIC,[40],4.47 µM
same,MIC,[41],8.94 µM
same,MIC,[42],4.47 µM
same,MIC,Salmonella typhimurium,8.94 µM
same,MIC,[43],2.24 µM
same,MIC,[44],4.47 µM
same,MIC,[45],4.47 µM
same,MIC,[46],8.94 µM
